ChEMBL document CHEMBL1127242, “Conformationally constrained HIV-1 protease inhibitors” (Bioorg Med Chem Lett, 1994)

Each compound was assayed against Human immunodeficiency virus type 1 protease (Human immunodeficiency virus 1, UniProt Q72874) (assay: Compound was tested for inhibitory activity against Human immunodeficiency virus (HIV-1) protease).

Point of comparison: `CC(C)(C)OC(=O)N[C@@H](Cc1ccccc1)[C@@H](O)C[C@]1(Cc2ccccc2)CCN([C@@H]2CS(=O)(=O)Cc3ccccc32)C1=O`, IC50 17 nM. Against it:
- C[C@@H]1CC[C@@H](O)[C@H]1N1CC[C@@](Cc2ccccc2)(C[C@H](O)[C@H](Cc2ccccc2)NC(=O)OC(C)(C)C)C1=O — within 1.5-fold, 14 nM
- CC(C)[C@@H](CO)N1CC[C@@](Cc2ccccc2)(C[C@H](O)[C@H](Cc2ccccc2)NC(=O)OC(C)(C)C)C1=O — 2.1-fold higher, 35 nM
- O=C(N[C@@H](Cc1ccccc1)[C@@H](O)C[C@@H](Cc1ccccc1)C(=O)N[C@H]1c2ccccc2C[C@H]1O)O[C@H]1CCOC1 — 280-fold lower, 0.06 nM
- CC(C)(C)OC(=O)N[C@@H](Cc1ccccc1)[C@@H](O)C[C@]1(Cc2ccccc2)CCN([C@@H]2CSCc3ccccc32)C1=O — 6.5-fold higher, 111 nM
- O=C(N[C@@H](Cc1ccccc1)[C@@H](O)C[C@]1(Cc2ccccc2)CCN([C@@H]2CS(=O)(=O)Cc3ccccc32)C1=O)O[C@H]1CCOC1 — 9.4-fold lower, 1.8 nM
- CC(C)(C)OC(=O)N[C@@H](Cc1ccccc1)[C@@H](O)CC1(Cc2ccccc2)CCN([C@H]2c3ccccc3C[C@H]2O)C1=O (single isomer, unassigned) — 2.2-fold higher, 37 nM
